This note sets out measurements from US8575181B2, “Purine derivatives for use in the treatment of allergic, inflammatory and infectious diseases” (GlaxoSmithKline LLC, priority 2008, dated 2013).

Common to all, as to assay type: cell-based
The subject of assay [1] is Interferon-α. Put plainly: Induction of Interferon-α using cryopreserved human PBMCs. The settings on record: PBMC, 24 h, 24 h incubation, normalised to 1 uM resiquimod and DMSO, read-out: mean pEC50 (induction of Interferon-α) (converted). The method, then: Assay for the Induction of Interferon-α Using Cryopreserved Human Peripheral Blood Mononuclear Cells (PBMCs)
Compounds were dissolved in DMSO. Serial 2-fold dilutions with DMSO were prepared and 0.25 μl dispensed into 384-well clear Greiner polypropylene plates.
Blood samples of up to 200 ml were obtained from healthy human donors. Whole blood in 25 ml volumes was overlaid onto 15 ml Ficoll gradients in Leucosep tubes, and centrifuged at 1000 g for 20 min. Cells in the band at the plasma/histopaque interface were carefully removed and washed twice with PBS (centrifuged at 400 g for 5 min to harvest). The final pellet was resuspended in freezing medium (90% Heat-inactivated serum, 10% DMSO) to a cell concentration of 4×10^7 cells/ml. The resuspended cells were then cryopreserved (frozen) using a rate controlled freezer, and stored at −140° C. for up to 4 months.
Incubation and Assay for Interferon-α
Immediately prior to assay, vials of cryopreserved (frozen) PBMCs were thawed rapidly in a water bath at 37° C. A 1:10 dilution of the cells in trypan blue was prepared and counted. The PBMCs were then diluted in growth media [RPMI 1640 containing 10% fetal calf serum (invitrogen), Penicillin+[…] (Gibco cat. #25030-024, 1:50), L-Glutamine 2 mM, and 1000 units/ml recombinant human IFN-gamma (Preprotech catalogue #300-02)] to a density of 1×10^6 cells/ml, and 50 ul/well dispensed to 384-well clear Greiner polypropylene plates containing 0.25 μl DMSO or test compound in 0.25 μl DMSO. […] Plates were incubated for 24 h at 37° C. in 5% CO2.
A multi-isoform immunoassay was used to quantify IFN-α in PBMC supernatants. Rabbit polyclonal antibody against human IFN-α (catalogue number 31101, Stratech Scientific) was diluted 1:10000 in assay buffer (RPMI 1640 containing 10% fetal calf serum, Invitrogen) and 20 μl was added to each well of an MSD (Meso-Scale Discovery) single small-spot 384-well GAR (goat anti-rabbit antibody coated) plate. The plate was incubated for 1 h at room temperature with vigorous shaking. Following three washes with PBS, 20 μl of cell supernatant were added to each well of the plate. The plate was then incubated for 1 h at room temperature with vigorous shaking. A pair of monoclonal antibodies to IFN-α (catalogue numbers 21100 and 21112, Stratech Scientific) were labelled with sulfo-TAG (MSD), diluted 1:1000 in assay buffer and 20 μl added to each well of the plate. The plate was further incubated for 1 h at room temperature with vigorous shaking. Following three washes with PBS, 30 μl of ×2 T buffer (MSD) was added to each well and the plate was read on an MSD Sector 6000 plate reader.
Data were normalised to internal plate controls of 1 uM resiquimod (n=16) and DMSO (n=16). pEC50 values were derived by 4-parameter curve fit with IRLS in ActivityBase, from 11-point, two-fold serial dilution of test compounds.

In assay [2] the test system is TNF-α. Put plainly: Induction of TNF-α using fresh human PBMCs. Particulars: PBMC, two donors, 24 hr incubation, percentage of 2 μM resiquimod control, read-out: mean pEC50 for induction of TNF-α (converted). On the procedure: (§1) Assay for the Induction of Interferon-α and TNF-α Using Fresh Human Peripheral Blood Mononuclear Cells (PBMCs)
(§2) Compounds were dissolved and serially diluted in DMSO to give 100× the required concentration range using a Biomek 2000. 1 ul of test compound was transferred into 96-well tissue culture plates using a Biomek FX. Each compound was assayed in duplicate for each donor. Each plate contained a dilution series of the TLR7/8 agonist resiquimod as standard and Column 11 contained 1 μl of 200 μM resiquimod (giving a 2 μM final concentration, used to define the approximate maximal response to resiquimod).
(§3) Blood samples from two human donors were collected into sodium heparin (10 U/ml). 25 ml volumes of whole blood were overlaid onto 15 mls Histopaque in Leucosep tubes which were centrifuged at 800 g for 20 min and the band at the plasma/histopaque interface carefully removed. The collected cells were centrifuged at 2500 rpm for 10 min and the pellet resuspended in 10 ml of media (RPMI 1640 (Low endotoxin) supplemented with 10% v/v foetal calf serum (FCS, low endotoxin) 100 U/ml penicillin G, 100 μg/ml streptomycin, 10 mM L-glutamine and 1× non-essential amino acids). A 1:20 dilution of the cells was prepared using trypan blue & the cells counted using a haemocytometer. The PBMCs were diluted to give a final concentration of 2×10^6/ml and 100 ul of this cells suspension was added to wells containing 1 μl of diluted test compound.
(§4) Incubation and Assays for Interferon-α and TNF-α
(§5) The cell preparations were incubated for 24 hr (37° C., 95% air, 5% CO2) after which a sample of the supernatant was removed using the Biomek FX and assayed for both IFN-α and TNF-α using the MSD (Mesoscale Discovery) electrochemiluminescence assay platform. The IFN-α assay was carried out similarly to that described above. The TNF-α assay was carried out as per kit instructions (Cat No K111BHB).
(§6) Cytokine released was expressed as a percentage of the 2 μM resiquimod control (column 11). This percentage was plotted against compound concentration and the pEC50 for the response determined by non-linear least squares curve fitting. For the IFN-α responses generally a 4 parameter logistic model was selected. For the TNF responses where a clear maximum response was obtained (i.e. a well defined plateau in the response was observed) then a 4 parameter model was generally used. If the upper asymptote of the curve wasn't well defined then the curve fitting was generally constrained to a maximal response of 100% (i.e. to the response to 2 μM resiquimod) or to the response of the highest concentration tested if this was greater than the resiquimod response. Some curves were bell shaped for one or both cytokines and the cytokine data on the down slope of the bell shaped response (i.e. concentrations above those giving the maximal response) were generally excluded from the fit, usually with the exception of the concentration immediately above the peak response. Curve fitting thus concentrated on the up slope of the dose response curve.

The test system of assay [3] is Interferon-α. In words: Induction of Interferon-α using fresh human PBMCs. Particulars: PBMC, two donors, 24 hr incubation, percentage of 2 μM resiquimod control, read-out: mean pEC50 for induction of IFN-α (converted). The method, then: as §1, §2, §3, §4, §5, §6

Turning to `CCCCOc1nc(N)c2[nH]c(=O)n(CCCN[C@H]3CCCO3)c2n1` [Example 1, 6-Amino-2-(butyloxy)-9-{3-[(2R)-tetrahydro-2-furanylamino]propyl}-7,9-dihydro-8H-purin-8-one], the EC50 in assay [1] was under 10 µM.

Regarding `CCCCOc1nc(N)c2[nH]c(=O)n(CCCN[C@@H]3CCCO3)c2n1` [Example 2, 6-Amino-2-(butyloxy)-9-{3-[(2S)-tetrahydro-2-furanylamino]propyl}-7,9-dihydro-8H-purin-8-one], the EC50 in assay [1] is under 10 µM.

In the case of `CCCCOc1nc(N)c2[nH]c(=O)n(CCCNCC3CCCO3)c2n1` (centres unmarked) [Example 3, 6-Amino-2-(butyloxy)-9-{3-[(tetrahydro-2-furanylmethyl)amino]propyl}-7,9-dihydro-8H-purin-8-one], the EC50 in assay [2] is over 10 µM; in assay [3], under 1 µM; in assay [1], under 10 µM.

Regarding `CCCCOc1nc(N)c2[nH]c(=O)n(CCCNCC3CCOC3)c2n1` (centres unmarked) [Example 4, 6-Amino-2-(butyloxy)-9-{3-[(tetrahydro-3-furanylmethyl)amino]propyl}-7,9-dihydro-8H-purin-8-one], the EC50 in assay [1] is under 10 µM.

On to `CCCCOc1nc(N)c2[nH]c(=O)n(CCCNCCC3CCCO3)c2n1` (centres unmarked) [Example 5, 6-Amino-2-(butyloxy)-9-(3-{[2-(tetrahydro-2-furanyl)ethyl]amino}propyl)-7,9-dihydro-8H-purin-8-one], for which the EC50 is over 10 µM in assay [2], under 1 µM in assay [3] and under 10 µM in assay [1].

In the case of `CCCCOc1nc(N)c2[nH]c(=O)n(CCCNCC3CCCCO3)c2n1` (centres unmarked) [Example 6, 6-Amino-2-(butyloxy)-9-{3-[(tetrahydro-2H-pyran-2-ylmethyl)amino]propyl}-7,9-dihydro-8H-purin-8-one], the EC50 in assay [1] is under 10 µM.

Regarding `CCCCOc1nc(N)c2[nH]c(=O)n(CCCNCC3CCCOC3)c2n1` (centres unmarked) [Example 7, 6-Amino-2-(butyloxy)-9-{3-[(tetrahydro-2H-pyran-3-ylmethyl)amino]propyl}-7,9-dihydro-8H-purin-8-one], the EC50 in assay [1] was under 10 µM.

For the compound `CCCCOc1nc(N)c2[nH]c(=O)n(CCCNCC3CCOCC3)c2n1` [Example 8, 6-Amino-2-(butyloxy)-9-{3-[(tetrahydro-2H-pyran-4-ylmethyl)amino]propyl}-7,9-dihydro-8H-purin-8-one], the EC50 was over 10 µM in assay [2], under 1 µM in assay [3] and under 10 µM in assay [1].

As to `CCCCOc1nc(N)c2[nH]c(=O)n(CCCNCCC3CCCCO3)c2n1` (centres unmarked) [Example 9, 6-Amino-2-(butyloxy)-9-(3-{[2-(tetrahydro-2H-pyran-2-yl)ethyl]amino}propyl)-7,9-dihydro-8H-purin-8-one], the EC50 was over 10 µM in assay [2], under 1 µM in assay [3] and under 10 µM in assay [1].

With `CCCCOc1nc(N)c2[nH]c(=O)n(CCCNCCC3CCCOC3)c2n1` (centres unmarked) [Example 10, 6-Amino-2-(butyloxy)-9-(3-{[2-(tetrahydro-2H-pyran-3-yl)ethyl]amino}propyl)-7,9-dihydro-8H-purin-8-one], the EC50 in assay [1] was under 10 µM.

In the case of `CCCCOc1nc(N)c2[nH]c(=O)n(CCCNCCC3CCOCC3)c2n1` [Example 11, 6-Amino-2-(butyloxy)-9-(3-{[2-(tetrahydro-2H-pyran-4-yl)ethyl]amino}propyl)-7,9-dihydro-8H-purin-8-one], in assay [1], the EC50 is under 10 µM.

Regarding `CCC[C@H](C)Oc1nc(N)c2[nH]c(=O)n(CCCNCC3CCCO3)c2n1` (stereo partly drawn) [Example 12, 6-Amino-2-{[(1S)-1-methylbutyl]oxy}-9-{3-[(tetrahydro-2-furanylmethyl)amino]propyl}-7,9-dihydro-8H-purin-8-one], the EC50 is over 1 µM in assay [2] and under 0.1 µM in assay [3].

`CCC[C@H](C)Oc1nc(N)c2[nH]c(=O)n(CCCNCCC3CCCO3)c2n1` (stereo partly drawn) [Example 13, 6-Amino-2-{[(1S)-1-methylbutyl]oxy}-9-(3-{[2-(tetrahydro-2-furanyl)ethyl]amino}propyl)-7,9-dihydro-8H-purin-8-one]: the EC50 in assay [2] is over 1 µM; in assay [3], under 0.1 µM.

Consider `CCC[C@H](C)Oc1nc(N)c2[nH]c(=O)n(CCCNCC3CCOCC3)c2n1` [Example 14, 6-Amino-2-{[(1S)-1-methylbutyl]oxy}-9-{3-[(tetrahydro-2H-pyran-4-ylmethyl)amino]propyl}-7,9-dihydro-8H-purin-8-one], for which the EC50 in assay [2] was over 1 µM; in assay [3], under 0.1 µM; in assay [1], under 10 µM.

With `CCCCNc1nc(N)c2[nH]c(=O)n(CCCNCC3CCCO3)c2n1` (centres unmarked) [Example 15, 6-Amino-2-(butylamino)-9-{3-[(tetrahydro-2-furanylmethyl)amino]propyl}-7,9-dihydro-8H-purin-8-one], the EC50 in assay [1] was under 10 µM.

For the compound `CCCCNc1nc(N)c2[nH]c(=O)n(CCCNCCC3CCCO3)c2n1` (centres unmarked) [Example 16, 6-Amino-2-(butylamino)-9-(3-{[2-(tetrahydro-2-furanyl)ethyl]amino}propyl)-7,9-dihydro-8H-purin-8-one], the figures for the EC50 in assay [2], in assay [3] and in assay [1] were over 10 µM, under 1 µM and under 10 µM, respectively.

In the case of `CCCCNc1nc(N)c2[nH]c(=O)n(CCCNCC3CCOCC3)c2n1` [Example 17, 6-Amino-2-(butylamino)-9-{3-[(tetrahydro-2H-pyran-4-ylmethyl)amino]propyl}-7,9-dihydro-8H-purin-8-one], the EC50 in assay [1] is under 10 µM.

Regarding `CCCCNc1nc(N)c2[nH]c(=O)n(CCCNCCC3CCCCO3)c2n1` (centres unmarked) [Example 18, 6-Amino-2-(butylamino)-9-(3-{[2-(tetrahydro-2H-pyran-2-yl)ethyl]amino}propyl)-7,9-dihydro-8H-purin-8-one], in assay [1], the EC50 was under 10 µM.
